Laboratory results published in patent publication US6894185B2, “Substituted chiral allosteric hemoglobin modifiers” (Allós Therapeutics, Inc., priority 1999, dated 2005).

Key:
hemoglobin = target: T1, hemoglobin (Homo sapiens, UniProt P68871+P69905); test: In vitro whole blood studies (multi-point tonometry and blood gas analysis); type: cell-based; conditions: Table III
T1 construct: The whole blood samples were collected in heparinized tubes from healthy volunteers; from tissue; host or cells: human whole blood (heparinized) from healthy volunteers
Procedure, shortened: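 Heparinized human whole blood from healthy volunteers with effector (sodium salt) at 5.0 mM, incubated ~10–12 min at 37 °C in tonometers and equilibrated at 20%, 40% and 60% O2. pO2 and sO2 measured by blood gas analyzer and co-oximeter; P50 and Hill coefficient by non-linear regression.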

T1 sequence (P69905 2-142 limits assumed): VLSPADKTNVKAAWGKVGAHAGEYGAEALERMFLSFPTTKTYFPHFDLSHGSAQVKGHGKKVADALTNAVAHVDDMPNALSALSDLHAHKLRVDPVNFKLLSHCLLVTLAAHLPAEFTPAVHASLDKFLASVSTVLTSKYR
T1 sequence (P68871 2-147 limits assumed): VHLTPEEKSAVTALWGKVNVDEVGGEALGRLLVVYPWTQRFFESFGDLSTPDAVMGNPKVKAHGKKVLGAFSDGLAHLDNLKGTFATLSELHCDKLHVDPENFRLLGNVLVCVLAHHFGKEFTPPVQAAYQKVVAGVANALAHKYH

Structure (SMILES): Cc1cc(C)cc(NC(=O)Cc2ccc(OC3(C(=O)N[C@@H](Cc4ccc(O)cc4)C(=O)O)CCCC3)cc2)c1 [Compound 54, 1-[4-(((3,5-dimethylanilino)carbonyl)methyl)phenoxy]cyclopentanecarbonyl-L-tyrosine]
- Whole Blood Δp50 mm Hg (hemoglobin): 21 mm Hg
- melting point: 74 to 75 °C
